Assay [1] concerns the target T1, Histone deacetylase 11 (Homo sapiens, UniProt Q96DB2).
T1 sequence (Q96DB2 whole entry): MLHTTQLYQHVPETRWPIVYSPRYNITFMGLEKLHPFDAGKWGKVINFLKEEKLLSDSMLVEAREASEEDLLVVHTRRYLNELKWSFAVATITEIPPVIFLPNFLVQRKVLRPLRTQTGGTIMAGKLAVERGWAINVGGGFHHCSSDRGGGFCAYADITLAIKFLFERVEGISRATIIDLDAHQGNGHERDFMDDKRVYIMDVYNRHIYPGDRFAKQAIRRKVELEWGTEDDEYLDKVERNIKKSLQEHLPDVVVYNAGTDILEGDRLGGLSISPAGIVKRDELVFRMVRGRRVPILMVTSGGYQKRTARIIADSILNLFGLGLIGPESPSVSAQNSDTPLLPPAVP
Kind of assay: Inhibition of human HDAC11 by fluorimetric assay.

Assay [2] has as its target Histone deacetylase 2 (Homo sapiens, UniProt Q92769).
For assay [3], the target named is T2, Histone deacetylase 8 (Homo sapiens, UniProt Q9BY41).
T2 sequence (Q9BY41 whole entry): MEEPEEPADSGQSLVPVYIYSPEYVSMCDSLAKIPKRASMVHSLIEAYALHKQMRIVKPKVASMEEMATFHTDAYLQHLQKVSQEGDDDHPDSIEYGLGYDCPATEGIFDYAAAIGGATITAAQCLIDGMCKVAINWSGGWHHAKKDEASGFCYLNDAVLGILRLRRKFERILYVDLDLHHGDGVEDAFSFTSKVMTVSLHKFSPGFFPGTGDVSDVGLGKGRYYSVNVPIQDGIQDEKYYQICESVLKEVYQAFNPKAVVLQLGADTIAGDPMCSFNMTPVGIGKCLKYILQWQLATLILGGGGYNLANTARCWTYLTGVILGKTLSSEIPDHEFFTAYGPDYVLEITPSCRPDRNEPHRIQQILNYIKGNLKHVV
Kind of assay: Inhibition of human HDAC8 by fluorimetric assay.

Assay [4] addresses T3, Polyamine deacetylase HDAC10 (Homo sapiens, UniProt Q969S8).
T3 sequence (Q969S8 whole entry): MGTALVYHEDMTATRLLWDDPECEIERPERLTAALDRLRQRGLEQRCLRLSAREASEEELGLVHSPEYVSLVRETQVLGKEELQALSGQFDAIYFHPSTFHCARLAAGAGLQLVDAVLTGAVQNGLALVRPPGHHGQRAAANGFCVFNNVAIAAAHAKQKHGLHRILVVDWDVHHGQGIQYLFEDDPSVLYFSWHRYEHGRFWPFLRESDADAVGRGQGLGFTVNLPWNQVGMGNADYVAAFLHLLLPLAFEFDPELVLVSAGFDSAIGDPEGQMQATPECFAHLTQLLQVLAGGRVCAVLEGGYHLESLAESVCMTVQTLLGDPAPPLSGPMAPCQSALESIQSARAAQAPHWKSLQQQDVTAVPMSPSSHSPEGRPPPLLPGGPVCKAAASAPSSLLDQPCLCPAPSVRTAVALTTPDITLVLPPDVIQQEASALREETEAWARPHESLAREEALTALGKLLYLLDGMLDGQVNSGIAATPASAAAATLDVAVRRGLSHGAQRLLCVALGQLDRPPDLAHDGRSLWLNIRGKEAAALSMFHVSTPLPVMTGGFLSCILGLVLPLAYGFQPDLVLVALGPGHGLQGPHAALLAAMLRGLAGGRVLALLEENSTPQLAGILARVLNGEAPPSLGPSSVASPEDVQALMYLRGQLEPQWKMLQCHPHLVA
Kind of assay: Inhibition of human HDAC10 by fluorimetric assay.

As a reminder, the IC50 is the point on the concentration scale where inhibition reaches its midpoint. A lower IC50 goes with greater potency.

Each structure is given as a SMILES string.

Chain of Histone deacetylase 2 (Q92769 whole entry): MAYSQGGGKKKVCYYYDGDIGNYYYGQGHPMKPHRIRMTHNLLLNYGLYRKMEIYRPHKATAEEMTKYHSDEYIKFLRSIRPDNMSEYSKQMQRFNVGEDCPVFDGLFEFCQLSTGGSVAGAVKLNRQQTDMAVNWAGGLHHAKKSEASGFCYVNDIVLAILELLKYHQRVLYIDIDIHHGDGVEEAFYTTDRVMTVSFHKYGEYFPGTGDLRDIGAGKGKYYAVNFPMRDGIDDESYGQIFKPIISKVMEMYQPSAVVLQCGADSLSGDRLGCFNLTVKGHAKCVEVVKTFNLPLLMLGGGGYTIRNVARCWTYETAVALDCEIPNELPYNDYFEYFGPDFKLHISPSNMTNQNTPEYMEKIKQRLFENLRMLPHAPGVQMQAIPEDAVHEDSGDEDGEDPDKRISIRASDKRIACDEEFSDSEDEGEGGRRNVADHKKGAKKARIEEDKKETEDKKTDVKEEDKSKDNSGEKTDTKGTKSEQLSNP

On to `COc1cc2cc(c1)COc1ccccc1NC(=O)[C@H](CCCCCC(=O)NO)OC/C=C\2`, for which the IC50 in assay [1] amounted to 22.9 nM; in assay [2], 158 nM; in assay [3] it was 198 nM; in assay [4], 62.5 nM.
For `COc1cc2cc(c1)COc1ccccc1NC(=O)[C@@H](CCCCCC(=O)NO)OC/C=C\2` the same measures were 97.1 nM, 382 nM, 206 nM and 152 nM.
For `O=C(CCCCCC1OCCCCCOc2ccccc2NC1=O)NO` (racemic) the same measures were 1210 nM, 1930 nM, 643 nM and 1530 nM.
For `COc1cc2cc(c1)COc1ccccc1NC(=O)C(CCCCCC(=O)NO)OC/C=C\2` (racemic) the same measures were 57.7 nM, 207 nM, 119 nM and 70.7 nM.

The values above are taken from ChEMBL document CHEMBL1629537, “Non-natural macrocyclic inhibitors of histone deacetylases: design, synthesis, and activity” (J Med Chem, 2010).
